Measured values from publication PMC5473940, “SAF-A Regulates Interphase Chromosome Structure through Oligomerization with Chromatin-Associated RNAs” (Cell, 2017).

Assays:
Format in all cases: binding
[1] = target: T1, SAF-A AAA+ domain (His-tagged AAA+ fragment) (Homo sapiens, UniProt Q00839, D580A, form not given); test: intrinsic fluorescence quenching (ex […] nm, em […] nm); conditions: pH 7.5, 37 °C, 10 mM MgCl2, 125 mM NaCl, 5 mM DTT; Walker B mutant
T1 construct: gene HNRNPU; AAA+ domain fragment, N-terminal 6xHis in pET32a, E. coli BL21(DE3); exact borders not in text (AAA domain modelled as aa 469-653)

[2] = target: T2, SAF-A AAA+ domain (His-tagged AAA+ fragment) (Homo sapiens, UniProt Q00839, K510A, form not given); test: as above; conditions: pH 7.5, 37 °C, 10 mM MgCl2, 125 mM NaCl, 5 mM DTT; Walker A mutant
T2 construct: gene HNRNPU; AAA+ domain fragment, N-terminal 6xHis in pET32a, E. coli BL21(DE3); exact borders not in text (AAA domain modelled as aa 469-653)

[3] = target: T3, SAF-A AAA+ domain (His-tagged AAA+ fragment) (Homo sapiens, UniProt Q00839); test: as above
T3 construct: gene HNRNPU; AAA+ domain fragment, N-terminal 6xHis in pET32a, E. coli BL21(DE3); exact borders not in text (AAA domain modelled as aa 469-653)

[4] = target: T4, FLAG-tagged full-length SAF-A (Homo sapiens, UniProt Q00839); test: stabilisation of immuno-purified oligomer, native PAGE western blot; conditions: 1 mM nucleotide, 37 °C, 10 mM DTT to reverse cross-links
T4 construct: gene HNRNPU
T4 sequence (Q00839 2-806 isoform Q00839-2): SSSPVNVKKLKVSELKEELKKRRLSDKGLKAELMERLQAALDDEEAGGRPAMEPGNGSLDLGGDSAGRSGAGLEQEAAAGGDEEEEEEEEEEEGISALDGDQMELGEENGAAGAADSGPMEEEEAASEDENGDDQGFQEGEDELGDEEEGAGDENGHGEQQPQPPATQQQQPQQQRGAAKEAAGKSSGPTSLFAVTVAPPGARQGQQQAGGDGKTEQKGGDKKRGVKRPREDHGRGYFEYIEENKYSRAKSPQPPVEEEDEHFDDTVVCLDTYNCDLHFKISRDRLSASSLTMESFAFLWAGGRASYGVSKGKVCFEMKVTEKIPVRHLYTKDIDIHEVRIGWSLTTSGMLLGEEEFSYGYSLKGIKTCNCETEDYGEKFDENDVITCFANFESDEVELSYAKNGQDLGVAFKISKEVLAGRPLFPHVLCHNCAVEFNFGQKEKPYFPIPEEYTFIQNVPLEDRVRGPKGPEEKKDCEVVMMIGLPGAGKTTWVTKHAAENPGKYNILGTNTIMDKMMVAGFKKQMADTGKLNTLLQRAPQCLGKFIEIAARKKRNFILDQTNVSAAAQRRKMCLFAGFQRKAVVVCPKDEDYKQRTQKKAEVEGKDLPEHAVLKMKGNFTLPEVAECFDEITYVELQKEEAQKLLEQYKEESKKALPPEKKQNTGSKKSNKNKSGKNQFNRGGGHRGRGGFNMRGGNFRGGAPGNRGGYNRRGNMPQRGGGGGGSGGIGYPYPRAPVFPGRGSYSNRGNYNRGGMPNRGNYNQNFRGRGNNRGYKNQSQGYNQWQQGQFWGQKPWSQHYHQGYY

T1 sequence (Q00839 507-691 D580A limits assumed): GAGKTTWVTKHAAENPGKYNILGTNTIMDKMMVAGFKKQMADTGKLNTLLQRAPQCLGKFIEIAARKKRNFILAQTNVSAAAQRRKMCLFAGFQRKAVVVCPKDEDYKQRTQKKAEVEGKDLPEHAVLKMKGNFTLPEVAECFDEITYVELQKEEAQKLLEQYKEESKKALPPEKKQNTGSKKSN
T2 sequence (Q00839 507-691 K510A limits assumed): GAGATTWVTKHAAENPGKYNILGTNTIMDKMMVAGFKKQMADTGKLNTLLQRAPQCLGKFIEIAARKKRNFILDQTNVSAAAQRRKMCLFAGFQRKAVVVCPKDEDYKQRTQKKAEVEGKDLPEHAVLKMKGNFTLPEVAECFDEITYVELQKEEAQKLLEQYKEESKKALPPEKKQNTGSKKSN
T3 sequence (Q00839 488-672 limits assumed): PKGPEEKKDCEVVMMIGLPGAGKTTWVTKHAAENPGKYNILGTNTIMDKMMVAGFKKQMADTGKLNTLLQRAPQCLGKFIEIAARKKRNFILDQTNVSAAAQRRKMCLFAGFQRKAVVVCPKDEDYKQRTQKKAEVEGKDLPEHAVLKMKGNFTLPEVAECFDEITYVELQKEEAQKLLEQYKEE

Kd [1]: 29 µM
Kd [3]: 38 µM
stabilisation of immuno-purified oligomer, native PAGE western blot [4]: ATP or ATPγS stabilized the oligomers
SMILES: Nc1ncnc2c1ncn2[C@@H]1O[C@H](COP(=O)(O)OP(=O)(O)OP(=O)(O)O)[C@@H](O)[C@H]1O [ATP]
ATP binding abrogated (no binding) [2]: Mutation of the Walker A motif abrogated ATP binding
